Measured values: patent EP4702986A1, “POLYPEPTIDE AND USE THEREOF” (Biocells (Beijing) Biotech Co., Ltd., priority 2023, dated 2024)
Numbered stars: 1 amine (or outer) side, 2 acyl side, 3 side chain; on linkers, the order of the positions; unused ones are H or OH. Side chains are listed from the residue outwards. Peptide text beside a SMILES is read from it. * marks the point of attachment. C18 diacid = O=C(O)CCCCCCCCCCCCCCCCC(=O)*; γGlu = O=C(O)[C@H](CCC(=O)[*:2])N[*:1]; Fumaroyl = O=C(O)/C=C/C(=O)*; Suc = O=C(CCC(=O)[*:2])[*:1]; Lauroyl = CCCCCCCCCCCC(=O)*; AEEA = NCCOCCOCC(=O)O

How the values were obtained:
[1] = tested on: BDNF; test: BDNF protein expression in infarcted brain tissue of tMCAO mice (ELISA); type: in vivo, C57/6J mice; details: for BDNF: 3 times (D1, D3, D6), infarcted brain tissue after D14; for expression level of BDNF protein compared with the normal saline group: tMCAO mice
Procedure: (§1) Fifty-one male C57/6J mice, aged 10-12 weeks, weighing 25-30g, were housed for at least 2 days prior to the experiment to adapt to the environment (SPF Biotech). A mouse model of tMCAO was established. The mice were anesthetized with isoflurane. Their body temperature was controlled by a thermostatic blanket and monitored and maintained at 37±0.5°C. A middle incision was made in the skin on the mouse skull, the skin was pulled outward, and a bendable microneedle tip was fixed to the surface of the left parietal bone of the mouse skull. A middle incision on the neck was made to separate the right common carotid artery (CCA), external carotid artery (ECA) and internal carotid artery (ICA). According to the method of Longa (Longa et al., 1989), a silicone rubber-coated suture (RWD Life Science, suture end diameter: 0.22 mm-0.23 mm, MSMC23B120PK50) was introduced through an external carotid artery incision surgery and was slowly advanced through the internal carotid artery towards the origin of the middle cerebral artery. To ensure a sustained and successful occlusion of the middle cerebral artery, we monitored local cerebral blood flow of all stroke animals with a laser speckle flowmeter (generally, the blood flow can be reduced by 40-60% after stabilized). The suture was removed 45 min after the insertion for modeling, and the incision was sutured. Afterward, 1 mL of 37°C warm saline was injected subcutaneously, and the mice were placed on a heating pad until recovery. To alleviate pain, the mice were injected subcutaneously with Tilidine after awakening from anesthesia.
(§2) Successfully modeled C57 tMCAO mice were randomly assigned into three groups: a normal saline group, a 30µg/Kg BX229-Na administration group, and a 100µg/Kg BX229-Na administration group. Each group was administered once subcutaneously in the neck 4.5 hours after occlusion (D1), and was administered once more at the same sites and at the same time points on D3 and D6. A sham group included 6 animals. 2 mL/kg was administrated subcutaneously in the neck. Garcia JH scoring was made on D7 and D14 after administration. After the completion of the scoring on D14, the mice were euthanized and harvested for infarcted brain tissues, to extract total proteins. Changes in protein markers VEGF-A and BDNF in each experimental group were detected by ELISA. Table 19: Experimental Grouping and Dosing Regimen

[2] = tested on: VEGF-A; test: VEGF-A protein expression in infarcted brain tissue of tMCAO mice (ELISA); type: in vivo, C57/6J mice; details: for VEGF-A: 3 times s.c. (D1, D3, D6), brain tissue after D14
Procedure: as §1, §2

[3] = tested on: rat model of pMACO; test: Rotarod test in rat model of pMACO; type: in vivo, SD rats; details: IRL1620 5 µg/Kg, BX34 7 µg/Kg, BX48 5 µg/Kg, administered 3 times (2, 4, 6 hours after modeling), n=10
Excerpt: Male SD rats weighing 280-300 g were used and acclimated for at least 3 days. Focal cerebral ischemia was induced by middle cerebral artery occlusion with a suture method under isoflurane anesthesia. The animals were placed in a secure supine position, and a midline incision was made to expose the right common carotid artery, external carotid artery, and internal carotid artery. A 4.0 monofilament nylon suture was advanced from the external carotid artery toward the internal carotid artery lumen until resistance was felt ( ~ 20 mm), indicating middle cerebral artery occlusion. The nylon filament was allowed to stay in place to create a permanent model of focal cerebral ischemia. Successfully modeled rats were randomly assigned to four groups: a solvent (normal saline) group (n=10), a 7 µg/Kg BX-34 group (n=10), a 5 µg/Kg BX-48 group (n=10), and a 5 µg/Kg IRL1620 group (n=10). Each group was administered once at 2 hours, 4 hours, and 6 hours, respectively, after modeling, for a total of three administrations. Grip strength was measured before administration and at 24 hours and on D3 and D7 after administration. A rotarod test and a foot fault test were performed before administration and at 24 hours and day 7 after administration. During the rotarod test, time and distance were recorded, and ratios of the measurement at 24 hours and the measurement at D7 to the pretest measurement were used as analysis indicators. The specific method for the foot fault test was as follows. The rats were placed on an elevated grid floor (29×29 cm, grid opening: 3 cm^2) for 2 minutes, and the number of foot faults (when a forelimb fell through the grid) and the total steps were recorded. % Foot fault = (the number of forelimb faults/the total number of forelimb steps) × 100.

[4] = tested on: rat model of pMACO; test: Foot fault test in rat model of pMACO; type: in vivo, SD rats; details: rat pMCAO; D7 after administration; comparison in words
[5] = background statement; cited from earlier work

CCCCCCCCCCCC(=O)N[C@@H](CCC(=O)NCCOCCOCC(=O)NCCCC[C@H](NC(=O)[C@H](Cc1c[nH]cn1)NC(=O)[C@H](C)NC(=O)[C@H](Cc1ccccc1)NC(=O)[C@H](Cc1ccc(O)cc1)NC(=O)[C@@H](NC(=O)[C@H](C)NC(=O)[C@H](CCC(=O)O)NC(=O)[C@H](CCC(=O)O)NC(=O)[C@H](CC(=O)O)NC(=O)/C=C/C(=O)O)C(C)C)C(=O)N[C@@H](CC(=O)O)C(=O)N[C@H](C(=O)N[C@H](C(=O)N[C@@H](Cc1c[nH]c2ccccc12)C(=O)O)[C@@H](C)CC)C(C)C)C(=O)O [BX229-Na] (Fumaroyl-DEEAVYFAHK([AEEA-γGlu-Lauroyl])DVIW-OH)
BDNF ([1]; 30 µg/Kg subcutaneously): 1103 ± 582 pg/mL | BDNF ([1]; 100 µg/Kg subcutaneously): 1334 ± 665 pg/mL | expression level of BDNF protein compared with the normal saline group ([1]; 30µg/Kg three-dose group): higher | expression level of BDNF protein compared with the normal saline group ([1]; 100µg/Kg three-dose group): higher | expression level of VEGF-A protein compared with the normal saline group ([2]; 30µg/Kg three-dose group): higher | VEGF-A ([2]; 30 µg/Kg): 441 ± 102 pg/mL | expression level of VEGF-A protein compared with the normal saline group ([2]; 100µg/Kg three-dose group): significantly different | VEGF-A ([2]; 100 µg/Kg): 562 ± 56 pg/mL

CC[C@H](C)[C@H](NC(=O)[C@H](CC(=O)O)NC(=O)[C@H](CCCCNC(=O)COCCOCCNC(=O)COCCOCCNC(=O)CC[C@H](NC(=O)CCCCCCCCCCCCCCCCC(=O)O)C(=O)O)NC(=O)[C@H](Cc1c[nH]cn1)NC(=O)[C@H](C)NC(=O)[C@H](Cc1ccccc1)NC(=O)[C@H](Cc1ccc(O)cc1)NC(=O)[C@@H](NC(=O)[C@H](C)NC(=O)[C@H](CCC(=O)O)NC(=O)[C@H](CCC(=O)O)NC(=O)[C@H](CC(=O)O)NC(=O)/C=C/C(=O)O)C(C)C)C(=O)N[C@H](C(=O)N[C@@H](Cc1c[nH]c2ccccc12)C(=O)O)[C@@H](C)CC [BX-34] (Fumaroyl-DEEAVYFAHK([AEEA-AEEA-γGlu-C18 diacid])DIIW-OH)
Rotarod Test 7D/pretest (%) Distance, m ([3]; 7D relative to pretest): 49.60%±49.48% | Rotarod Test 7D/pretest (%) Time, s ([3]; 7D relative to pretest): 65.5%±29.94% | Rotarod Test 7D/pretest (%) Velocity ([3]; 7D relative to pretest): 62.27%±34.12% | Rotarod Test 24h/pretest (%) Distance, m ([3]; 24h relative to pretest): 28.25%±44.00% | Rotarod Test 24h/pretest (%) Time, s ([3]; 24h relative to pretest): 38.34%±38.08% | Rotarod Test 24h/pretest (%) Velocity ([3]; 24h relative to pretest): 39.09%±35.03% | percentages of foot faults [4]: lower than that of the saline group and the IRL1620 group

CC[C@H](C)[C@H](NC(=O)[C@H](CC(=O)O)NC(=O)[C@H](CC(C)C)NC(=O)[C@H](Cc1c[nH]cn1)NC(=O)[C@H](C)NC(=O)[C@H](Cc1ccccc1)NC(=O)[C@H](Cc1ccc(O)cc1)NC(=O)[C@@H](NC(=O)[C@H](C)NC(=O)[C@H](CCC(=O)O)NC(=O)[C@H](CCC(=O)O)NC(=O)[C@H](CC(=O)O)NC(=O)CCC(=O)O)C(C)C)C(=O)N[C@H](C(=O)N[C@@H](Cc1c[nH]c2ccccc12)C(=O)O)[C@@H](C)CC [IRL1620, reference compound] (Suc-DEEAVYFAHLDIIW-OH)
half-life [5]: less than 2 minutes
